From patent US20230348516A1, “YKL-40 INHIBITORS AND THEIR THERAPEUTIC APPLICATIONS” (Molecure S.A., priority 2022, published 2023)

Biological target: YKL-40 and asialofetuin interaction (Homo sapiens, UniProt P36222)
Assay: Orthogonal YKL-40 AlphaScreen assay using biotinylated asialofetuin (AF-biot)
Type: binding

Sequence of YKL-40 and asialofetuin interaction (P36222 22-383): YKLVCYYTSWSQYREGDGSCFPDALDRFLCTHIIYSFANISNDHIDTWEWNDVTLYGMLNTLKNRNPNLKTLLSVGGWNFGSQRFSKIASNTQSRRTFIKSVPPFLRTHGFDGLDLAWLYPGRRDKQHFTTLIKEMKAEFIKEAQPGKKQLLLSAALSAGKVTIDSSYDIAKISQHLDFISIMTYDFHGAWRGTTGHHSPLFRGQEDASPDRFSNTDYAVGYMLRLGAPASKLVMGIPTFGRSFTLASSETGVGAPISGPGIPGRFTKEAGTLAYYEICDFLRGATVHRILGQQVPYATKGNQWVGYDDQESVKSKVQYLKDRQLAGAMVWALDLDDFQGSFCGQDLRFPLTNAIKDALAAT

Cc1cc(C2CCC(N3C[C@H](C(=O)O)OC[C@@H]3Cc3ccc(Cl)cc3)CC2)nn1C.O=C(O)C(F)(F)F (single isomer, unassigned) [Example 11, 2,2,2-trifluoroacetate]
IC50: 20 nM

Cc1cc(C2CCC(N3C[C@H](C(=O)O)OC[C@@H]3Cc3ccc(Cl)cc3)CC2)nn1C.O=C(O)C(F)(F)F (single isomer, unassigned) [Example 11]
interference with YKL-40 and asialofetuin (triantennary LacNac) interaction: 64%
